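Values below derive from 48-hour exposures of cells grown in 96-well plates, with endpoints linearly interpolated between the two concentrations bracketing the appropriate inhibition level. At the GI50, growth is halved.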 Activity calls are given as the source filed them. Cut-off read from the data, not from the text of the source: active = GI50 up to about 1.1 µM and inactive = higher.
Key:
Experiment in all cases: inhibition of tumour cell growth, NCI panel, 48 h
NCI-H226 = tested on: NCI-H226
Malme-3M = tested on: Malme-3M
BT-549 = tested on: BT-549
SF-295 = tested on: SF-295
SF-268 = tested on: SF-268
COLO 205 = tested on: COLO 205
RPMI-8226 = tested on: RPMI-8226
SR = tested on: SR
K562 = tested on: K562
SW-620 = tested on: SW-620
SNB-19 = tested on: SNB-19
NCI/ADR-RES = tested on: NCI/ADR-RES
NCI-H23 = tested on: NCI-H23
IGROV-1 = tested on: IGROV-1
MDA-MB-231 = tested on: MDA-MB-231
OVCAR-3 = tested on: OVCAR-3
HT-29 = tested on: HT-29
MOLT-4 = tested on: MOLT-4
EKVX = tested on: EKVX
SK-MEL-5 = tested on: SK-MEL-5

SMILES	GI50 (NCI-H226)	GI50 (Malme-3M)	GI50 (BT-549)	GI50 (SF-295)	GI50 (SF-268)	GI50 (COLO 205)	GI50 (RPMI-8226)	GI50 (SR)	GI50 (K562)	GI50 (SW-620)	GI50 (SNB-19)	GI50 (NCI/ADR-RES)	GI50 (NCI-H23)	GI50 (IGROV-1)	GI50 (MDA-MB-231)	GI50 (OVCAR-3)	GI50 (HT-29)	GI50 (MOLT-4)	GI50 (EKVX)	GI50 (SK-MEL-5)
Cc1ccccc1N(C)S(=O)(=O)c1ccccc1[N+](=O)[O-]	33.1 µM (inactive)	> 100 µM (inactive)	33 µM (inactive)	42.5 µM (inactive)	40.7 µM (inactive)	13.1 µM (inactive)	30.1 µM (inactive)	36.6 µM (inactive)	28.7 µM (inactive)	84.1 µM (inactive)	67.8 µM (inactive)	25.1 µM (inactive)	31.5 µM (inactive)	> 100 µM (inactive)	22.3 µM (inactive)	46.3 µM (inactive)	32.2 µM (inactive)	27.9 µM (inactive)	32.2 µM (inactive)	15.4 µM (inactive)
O=C1c2cc([N+](=O)[O-])sc2C(=O)c2cc([N+](=O)[O-])sc21	12.3 µM (inactive)	0.34 µM (active)	2.05 µM (inactive)	8.2 µM (inactive)	3.63 µM (inactive)	2.02 µM (inactive)	0.535 µM (active)	0.268 µM (active)	0.432 µM (active)	1.72 µM (inactive)	3.85 µM (inactive)	3.62 µM (inactive)	5.26 µM (inactive)	1.56 µM (inactive)	2.07 µM (inactive)	2.41 µM (inactive)	3.24 µM (inactive)	2.84 µM (inactive)	3.13 µM (inactive)	2.51 µM (inactive)
C/C=C/[C@@H](C(=O)OC)N1C(=O)c2ccccc2[C@H]1O	> 100 µM (inactive)	> 100 µM (inactive)	> 100 µM (inactive)	> 100 µM (inactive)	> 100 µM (inactive)	> 100 µM (inactive)	> 100 µM (inactive)	> 100 µM (inactive)	> 100 µM (inactive)	> 100 µM (inactive)	> 100 µM (inactive)	> 100 µM (inactive)	> 100 µM (inactive)	> 100 µM (inactive)	> 100 µM (inactive)	> 100 µM (inactive)	> 100 µM (inactive)	> 100 µM (inactive)	> 100 µM (inactive)	> 100 µM (inactive)
O=C1C(c2c(O)[nH]c3ccc([N+](=O)[O-])cc23)=Nc2ccccc21	> 100 µM (inactive)	> 100 µM (inactive)	52.5 µM (inactive)	43 µM (inactive)	> 100 µM (inactive)	> 100 µM (inactive)	> 100 µM (inactive)	30.3 µM (inactive)	> 100 µM (inactive)	> 100 µM (inactive)	49.8 µM (inactive)	> 100 µM (inactive)	> 100 µM (inactive)	10 µM (inactive)	31.7 µM (inactive)	> 100 µM (inactive)	> 100 µM (inactive)	65.9 µM (inactive)	> 100 µM (inactive)	> 100 µM (inactive)
C[N+]1([O-])CCC(O)(C2CC2)CC1 (stereo not given)	> 100 µM (inactive)	> 100 µM (inactive)	> 100 µM (inactive)	> 100 µM (inactive)	> 100 µM (inactive)	> 100 µM (inactive)	> 100 µM (inactive)	> 100 µM (inactive)	> 100 µM (inactive)	> 100 µM (inactive)	> 100 µM (inactive)	> 100 µM (inactive)	> 100 µM (inactive)	> 100 µM (inactive)	> 100 µM (inactive)	> 100 µM (inactive)	> 100 µM (inactive)	> 100 µM (inactive)	> 100 µM (inactive)	> 100 µM (inactive)
O=C(CC(c1ccccc1)C1C(=O)NC(=S)NC1=O)c1ccc([N+](=O)[O-])cc1 (stereo not given)	> 100 µM (inactive)	> 100 µM (inactive)	> 100 µM (inactive)	> 100 µM (inactive)	72.8 µM (inactive)	> 100 µM (inactive)	45.9 µM (inactive)	41.1 µM (inactive)	> 100 µM (inactive)	> 100 µM (inactive)	> 100 µM (inactive)	> 100 µM (inactive)	> 100 µM (inactive)	> 100 µM (inactive)	> 100 µM (inactive)	> 100 µM (inactive)	> 100 µM (inactive)	> 100 µM (inactive)	31.8 µM (inactive)	> 100 µM (inactive)
Cc1ccc2[nH]c3c(c2c1)C1CCC(C(C)(C)C)CC1C1C(=O)N(c2ccc(Oc4ccccc4)cc2)C(=O)C31 (stereo not given)	29.4 µM (inactive)	12.3 µM (inactive)	20 µM (inactive)	26.6 µM (inactive)	6.75 µM (inactive)	13.5 µM (inactive)	15.8 µM (inactive)	1.05 µM (active)	8.91 µM (inactive)	19.3 µM (inactive)	16.2 µM (inactive)	20.5 µM (inactive)	19.3 µM (inactive)	30.8 µM (inactive)	20.3 µM (inactive)	11.5 µM (inactive)	> 79.6 µM (inactive)	2.77 µM (inactive)	27 µM (inactive)	> 92.5 µM (inactive)
CS(=O)(=O)c1ccc(/N=C/C=C/Nc2ccc(S(C)(=O)=O)cc2)cc1	> 100 µM (inactive)	> 100 µM (inactive)	> 100 µM (inactive)	> 100 µM (inactive)	> 100 µM (inactive)	> 100 µM (inactive)	> 100 µM (inactive)	> 100 µM (inactive)	> 100 µM (inactive)	> 100 µM (inactive)	> 100 µM (inactive)	> 100 µM (inactive)	> 100 µM (inactive)	> 100 µM (inactive)	> 100 µM (inactive)	> 100 µM (inactive)	> 100 µM (inactive)	> 100 µM (inactive)	> 100 µM (inactive)	> 100 µM (inactive)
